Test results published in the NIST ThermoML archive (doi:10.1016/j.fluid.2008.03.009).

Conditions: Liquid, Vibrating tube method

CCCO [propan-1-ol]
Conditions	mass density [kg/m3]
298.15 K, 110 kPa	799.54
298.15 K, 5270 kPa	803.6
298.15 K, 9870 kPa	807.01
298.15 K, 14700 kPa	810.46
298.15 K, 20530 kPa	814.46
298.15 K, 25030 kPa	817.44
298.15 K, 30100 kPa	820.7
298.15 K, 35010 kPa	823.76
298.15 K, 39560 kPa	826.52
323.15 K, 590 kPa	779.78
323.15 K, 5940 kPa	784.71
323.15 K, 10600 kPa	788.81
323.15 K, 16000 kPa	793.2
323.15 K, 20640 kPa	796.73
323.15 K, 24880 kPa	799.83
323.15 K, 30800 kPa	803.99
323.15 K, 35220 kPa	807.01
323.15 K, 39790 kPa	810.02
348.15 K, 140 kPa	757.11
348.15 K, 5170 kPa	762.68
348.15 K, 10260 kPa	767.5
348.15 K, 15790 kPa	772.52
348.15 K, 20560 kPa	776.41
348.15 K, 24810 kPa	780.32
348.15 K, 29300 kPa	784.09
348.15 K, 35560 kPa	789.01
348.15 K, 39950 kPa	792.23
373.15 K, 360 kPa	733.24
373.15 K, 5480 kPa	739.29
373.15 K, 10290 kPa	745.11
373.15 K, 15700 kPa	750.9
373.15 K, 19960 kPa	755.19
373.15 K, 25170 kPa	760.17
373.15 K, 30510 kPa	765.02
373.15 K, 35920 kPa	769.7
373.15 K, 39780 kPa	772.91
398.15 K, 620 kPa	705.55
398.15 K, 5670 kPa	713.23
398.15 K, 10620 kPa	720.1
398.15 K, 15580 kPa	726.46
398.15 K, 20350 kPa	732.35
398.15 K, 25090 kPa	737.77
398.15 K, 31150 kPa	744.07
398.15 K, 35410 kPa	748.41
398.15 K, 39390 kPa	752.32
423.15 K, 1570 kPa	674.63
423.15 K, 5870 kPa	682.79
423.15 K, 10160 kPa	690.93
423.15 K, 15320 kPa	699.32
423.15 K, 20500 kPa	707.2
423.15 K, 26280 kPa	715.01
423.15 K, 31600 kPa	721.36
423.15 K, 35780 kPa	726.03
423.15 K, 39700 kPa	730.17
